Measured values: US20040101834A1, “Method of and kit for assessing responsiveness of cancer patients to antifolate chemotherapy” (priority 2001, published 2004)
Changes are numbered by the printed parent chain. Numbers in names are those of the source. Read-outs that look alike come from different tables or passages of the source. Marks after values point to notes of the source that are not given here.

What was measured:
[1] = tested on: GW70 cells (GW1843U89-resistant CEM subline); assay: Antifolate growth inhibition, 72 h drug exposure; type: cell-based, human; conditions: for sensitivity relative to parental CEM cells: lipid-soluble antifolates
[2] = tested on: parental human CEM leukemia cells (CEM/WT); assay: Antifolate growth inhibition, 72 h drug exposure; type: cell-based
[3] = tested on: GW70/LF cells; assay: Antifolate growth inhibition, 72 h drug exposure; type: cell-based
Experimental: The GW70 subline was established by stepwise exposure of parental CEM cells to gradually increasing concentrations of the potent thymidylate synthase inhibitor, GW1843U89 in normal growth medium; this selection was initiated at 1.5 nM and terminated at 70 nM GW1843U89, the cells were therefore termed GW70. GW70/LF cells were established by gradual deprivation of folic acid from the growth medium; this was terminated at a concentration of 5 nM folic acid.

[4] = biological target: T1, human RFC (Homo sapiens, UniProt P41440); conditions: Westerhof et al., 1995; read-out: Ki as transport substrate; cited from earlier work
T1 sequence (P41440 1-591): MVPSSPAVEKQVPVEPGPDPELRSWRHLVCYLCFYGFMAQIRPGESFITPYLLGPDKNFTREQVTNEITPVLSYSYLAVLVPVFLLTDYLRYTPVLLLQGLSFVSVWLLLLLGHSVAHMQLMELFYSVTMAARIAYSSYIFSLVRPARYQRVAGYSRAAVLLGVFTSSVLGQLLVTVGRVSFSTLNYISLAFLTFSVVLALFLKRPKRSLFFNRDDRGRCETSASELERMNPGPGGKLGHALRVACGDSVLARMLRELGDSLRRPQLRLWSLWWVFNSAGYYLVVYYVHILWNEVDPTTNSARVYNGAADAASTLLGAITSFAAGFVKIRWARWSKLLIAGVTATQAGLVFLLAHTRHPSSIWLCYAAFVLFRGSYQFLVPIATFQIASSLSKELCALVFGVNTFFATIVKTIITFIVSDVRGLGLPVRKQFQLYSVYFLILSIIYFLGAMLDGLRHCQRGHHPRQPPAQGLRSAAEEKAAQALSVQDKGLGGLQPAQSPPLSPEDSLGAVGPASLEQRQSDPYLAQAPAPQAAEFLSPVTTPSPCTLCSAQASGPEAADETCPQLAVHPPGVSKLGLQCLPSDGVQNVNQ

[5] = biological target: T2, RFC in GW70 cells (Homo sapiens, UniProt P41440, E45K/H27R/S46I/V29L); assay: [3H]MTX and [3H]folic acid transport; type: cell-based; conditions: GW70 vs parental CEM
T2 construct: endogenous in cells; host or cells: CEM-GW70 (GW1843U89-resistant CCRF-CEM subline)
T2 sequence (P41440 1-591 H27R/V29L/E45K/S46I): T1 sequence (P41440 1-591) with H27R, V29L, E45K, S46I
Experimental: At selected transport time intervals, ranging from 0.5-30 minutes, uptake was terminated by the addition of 10 ml ice-cold HBSS, after which centrifugation and cell wash with another 10 ml ice-cold HBSS were performed. The final cell pellet was then counted for radioactivity.

[6] = biological target: TS (Mus musculus, UniProt P07607); conditions: Jackman, 1991; cited from earlier work
[7] = tested on: mouse MTX^rA leukemia transfectant harboring Glu45Lys RFC cDNA; assay: Folate growth requirement in RFC transfectants; type: cell-based
Experimental: (§2) Thereafter, cells were washed twice with serum-free folic acid-free medium, in order to eliminate GAT. […] Thereafter, cells were exposed continuously to various concentrations of leucovorin or folic acid for 72 hours, following which cell numbers were determined by hemocytometer count of viable cells, using trypan blue exclusion.

[8] = tested on: mouse MTX^rA leukemia transfectant harboring His27/His56 RFC cDNA; assay: Folate growth requirement in RFC transfectants; type: cell-based
Experimental: as §2

[9] = tested on: mouse MTX^rA leukemia transfectant harboring His27 RFC cDNA; assay: Folate growth requirement in RFC transfectants; type: cell-based
Experimental: as §2

[10] = tested on: parental human CEM leukemia cells (CEM/WT); assay: Folate growth requirement; type: cell-based; conditions: read-out: EC50, concentration necessary to support 50% of maximal growth, Table 6
Source text: (§1) Table 6 below summarizes the antifolate growth inhibition and folate growth requirement in parental human CEM leukemia cells and their GW70 subline.

[11] = tested on: mouse MTX^rA leukemia transfectant harboring native RFC (Arg27) cDNA; assay: Folate growth requirement in RFC transfectants; type: cell-based
Experimental: as §2

[12] = tested on: GW70 cells (GW1843U89-resistant CEM subline); assay: Folate growth requirement; type: cell-based, human; conditions: Homo sapiens, read-out: EC50, concentration necessary to support 50% of maximal growth; Table 6; column GW (GW70)
Source text: as §1

[13] = tested on: mouse MTX^rA leukemia transfectant harboring Arg27/His56 RFC cDNA; assay: Folate growth requirement in RFC transfectants; type: cell-based
Experimental: as §2

[14] = substrate: Nc1nc2ncc(CNc3ccc(C(=O)N[C@@H](CCC(=O)O)C(=O)O)cc3)nc2c(=O)[nH]1; assay: cells, lysate or membranes; type: cell-based, human; conditions: influx, initial (3 min) uptake rates, Lineweaver-Burk, pH 7.4, 37.0 °C
[15] = substrate: CN(Cc1cnc2nc(N)nc(N)c2n1)c1ccc(C(=O)N[C@@H](CCC(=O)O)C(=O)O)cc1; assay: cells, lysate or membranes; conditions: other: CEM/GW70; influx, initial (3 min) uptake rates, Lineweaver-Burk; pH 7.4; 37.0 °C
[16] = substrate: CN(Cc1cnc2nc(N)nc(N)c2n1)c1ccc(C(=O)N[C@@H](CCC(=O)O)C(=O)O)cc1; assay: cells, lysate or membranes; type: cell-based, human; conditions: other: CEM/GW70-LF; influx, initial (3 min) uptake rates, Lineweaver-Burk; pH 7.4; 37.0 °C
[17] = Homo sapiens, 72 h, Table 10, GW70/LF
[18] = Homo sapiens, 72 h, Table 10, GW70/LF grown in the presence of 2.3 µM folic acid
[19] = Homo sapiens, Table 10, CEM/WT, 72 h drug exposure, read-out: IC50
[20] = Homo sapiens, 72 h, read-out: IC50, antifolate concentration that inhibits cell growth by 50%
[21] = Table 10, GW70, 72 h drug exposure, read-out: IC50
[22] = Table 10, CEM/WT, 72 h drug exposure, read-out: IC50
[23] = Table 10, GW70/LF, read-out: IC50
[24] = Mus musculus, read-out: EC50, concentration necessary to support 50% of maximal growth of control cells

TS, sequence (P07607 whole entry): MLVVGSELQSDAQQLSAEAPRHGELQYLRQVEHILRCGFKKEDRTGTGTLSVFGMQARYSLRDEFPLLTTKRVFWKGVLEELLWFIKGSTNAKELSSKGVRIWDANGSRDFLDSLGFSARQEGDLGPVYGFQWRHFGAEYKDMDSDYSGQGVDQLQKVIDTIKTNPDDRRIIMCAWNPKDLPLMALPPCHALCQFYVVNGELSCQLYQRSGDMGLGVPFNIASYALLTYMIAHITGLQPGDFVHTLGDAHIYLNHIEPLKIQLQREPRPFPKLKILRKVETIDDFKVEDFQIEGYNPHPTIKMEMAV

Work on `Nc1nc2c(c(=O)[nH]1)CC(CCc1ccc(C(=O)N[C@@H](CCC(=O)O)C(=O)O)cc1)CN2` (some centres unmarked) [DDATHF, 5,10-dideazatetrahydrofolic acid] yielded an IC50 ([1]; Homo sapiens, 72 h) of 360 ± 106 nM, an IC50 ([2]; Homo sapiens, 72 h) of 11 ± 4 nM and an IC50 [3, 17] of 8.2 ± 1.7 nM. For the same molecule, the IC50 [3, 18] was greater than 10000 nM.

`Nc1nc2[nH]cc(CCc3ccc(C(=O)N[C@@H](CCC(=O)O)C(=O)O)cc3)c2c(=O)[nH]1` [MTA] gave an IC50 ([1]; Homo sapiens, 72 h) of 351 ± 73 nM, an IC50 [2, 19] of 23 ± 7 nM and an IC50 [3, 17] of 4.6 ± 0.6 nM. The IC50 [3, 18] was 221 ± 47 nM.

For `COc1cc(NCc2ccc3nc(N)nc(N)c3c2C)cc(OC)c1OC` [TMQ], the “sensitivity relative to parental CEM cells” value ([1]; GW70, listed as trimetraxate) was “hypersensitive”, the “sensitivity relative to parental CEM cells” value ([1]; GW70, listed as trimetrexate) was “collaterally more sensitive than parental CEM cells” and the IC50 ([1]; Homo sapiens, 72 h) was 7.2 ± 1.7 nM. The IC50 [2, 19] was 7.5 ± 2.1 nM and the IC50 [3, 17] was 1.1 ± 0.2 nM.

In the case of `Cc1nc2ccc3ccc(CNc4ccc5c(c4)CN([C@@H](CCC(=O)O)C(=O)O)C5=O)cc3c2c(=O)[nH]1` [GW1843], the “fold resistance / cross-resistance” value ([1]; GW70 vs parental CEM cells) is reported as 100 fold, the IC50 ([1]; Homo sapiens, 72 h) is reported as 123 ± 48 nM and the IC50 [1, 20] is reported as 172 ± 34.5 nM. The IC50 [2, 20] was 1.8 ± 0.22 nM, the IC50 [2, 19] was 2.4 ± 0.4 nM and the Ki [4] was 800 nM. The “fold decreased affinity of RFC” value [5] was 6 fold, the IC50 [3, 17] was 2.5 ± 0.7 nM and the IC50 [3, 18] was 7.5 ± 1.5 nM.

In the case of `Cc1ccc2nc(N)[nH]c(=O)c2c1Sc1ccncc1` [AG337], the “sensitivity relative to parental CEM cells” value ([1]; GW70) is reported as “collaterally more sensitive than parental CEM cells”, the IC50 [1, 21] is reported as 974 ± 241 nM and the IC50 [2, 22] is reported as 1800 ± 340 nM. It also gave an IC50 ([3]; Table 10, GW70/LF grown in the presence of 2.3 µM folic acid, read-out: IC50) of 2220 ± 264 nM and an IC50 [3, 23] of 920 ± 430 nM.

With `C#CCN(Cc1cc2c(=O)[nH]c(C)nc2cc1C)c1ccc(C(=O)N[C@@H](CCc2nnn[nH]2)C(=O)O)c(F)c1` [ZD9331] the IC50 ([1]; Homo sapiens, 72 h) was 479 ± 67 nM, the IC50 ([2]; Homo sapiens, 72 h) was 16 ± 1 nM and the IC50 [3, 17] was 25 ± 6 nM. For the same molecule, the IC50 [3, 18] was 12 ± 4 nM.

In the case of `Cc1nc2ccc(CN(C)c3ccc(C(=O)N[C@@H](CCC(=O)O)C(=O)O)s3)cc2c(=O)[nH]1` [ZD1694], the Ki [6] is listed as 60 nM, the IC50 ([1]; Homo sapiens, 72 h) is listed as 515 ± 224 nM and the IC50 [2, 19] is listed as 3.5 ± 0.6 nM. The IC50 ([3]; Homo sapiens, 72 h, Table 10, GW70/LF grown in the presence of 2.3 µM folic acid, read-out: IC50) was 389 ± 55 nM and the IC50 ([3]; Homo sapiens, 72 h, Table 10, GW70/LF, read-out: IC50) was 3.2 ± 0.5 nM.

`Nc1nc(N)c2nc(CNc3ccc(C(=O)N[C@@H](CCCNC(=O)c4ccccc4C(=O)O)C(=O)O)cc3)cnc2n1` [PT523] gave an IC50 [1, 21] of 81 ± 16 nM, an IC50 [2, 22] of 1.1 ± 0.3 nM and an IC50 [3, 23] of 1.4 ± 0.1 nM.

With `CN1c2c(nc(N)[nH]c2=O)NCC1CNc1ccc(C(=O)N[C@@H](CCC(=O)O)C(=O)O)cc1` (some centres unmarked) [5-methyl-THF, 5-methyltetrahydrofolate] the “fold increased affinity of RFC” value [5] was 3 fold.

In the case of `Nc1nc2c(c(=O)[nH]1)N(C=O)C(CNc1ccc(C(=O)N[C@@H](CCC(=O)O)C(=O)O)cc1)CN2` (some centres unmarked) [Leucovorin, 5-formyltetrahydrofolate], the “MTX IC50/leucovorin EC50 ratio” value ([7]; Glu45Lys transfectant, in parentheses) is reported as “(1.17)”, the EC50 [7, 24] is reported as 0.65 ± 0.15 nM and the EC50 [8, 24] is reported as 0.42 ± 0.1 nM. For the same molecule, the “MTX IC50/leucovorin EC50 ratio” value ([8]; in parentheses) was “(1.81)”, the EC50 [9, 24] was 0.78 ± 0.09 nM and the “MTX IC50/leucovorin EC50 ratio” value ([9]; in parentheses) was “(0.97)”. The EC50 [10] was 0.51 ± 0.08 nM, the “MTX IC50/leucovorin EC50 ratio” value ([11]; Arg27 transfectant, in parentheses) was “(1)^c” and the EC50 ([11]; Mus musculus, read-out: EC50, concentration necessary to support 50% of maximal growth of control cells, Arg27 (native RFC) transfectant) was 0.76 ± 0.03 nM. For the same molecule, the EC50 [12] was 2.4 ± 1.1 nM, the EC50 [13, 24] was 0.7 ± 0.14 nM and the “MTX IC50/leucovorin EC50 ratio” value ([13]; in parentheses) was “(1.32)”.

B1: RFC in GW70 cells (Homo sapiens; E45K/H27R/S46I/V29L) (protein)
chain: T1 sequence (P41440 1-591) with H27R, V29L, E45K, S46I
notes: endogenous in cells; host or cells: CEM-GW70 (GW1843U89-resistant CCRF-CEM subline)
B1 showed a Km ([14]; other: CEM/GW70) of 16.5 ± 3.4 µM and a Km [15] of 16 ± 3.9 µM.

B2: RFC in GW70/LF cells (Homo sapiens; D88H/E45K/H27R/S46I/V29L) (protein)
chain: T1 sequence (P41440 1-591) with H27R, V29L, E45K, S46I, D88H
notes: a prominent overproduction of the native ˜80 kDa and truncated 43 kDa RFC proteins; endogenous in cells; host or cells: GW70/LF (GW70 cells adapted to low folate; 5-fold RFC gene amplification)
With B2 the Km [16] was 17.1 ± 1.2 µM and the Km ([14]; other: CEM/GW70-LF) was 15.5 ± 2.5 µM.
